This is an account of results in paper PMC5111741 (The European Journal of Neuroscience, 2016).

SMILES strings stand for the structures.

In the test the target is T1, rat prestin labelled with GFP (Rattus norvegicus, UniProt Q9EPH0).
T1 sequence (Q9EPH0 1-744): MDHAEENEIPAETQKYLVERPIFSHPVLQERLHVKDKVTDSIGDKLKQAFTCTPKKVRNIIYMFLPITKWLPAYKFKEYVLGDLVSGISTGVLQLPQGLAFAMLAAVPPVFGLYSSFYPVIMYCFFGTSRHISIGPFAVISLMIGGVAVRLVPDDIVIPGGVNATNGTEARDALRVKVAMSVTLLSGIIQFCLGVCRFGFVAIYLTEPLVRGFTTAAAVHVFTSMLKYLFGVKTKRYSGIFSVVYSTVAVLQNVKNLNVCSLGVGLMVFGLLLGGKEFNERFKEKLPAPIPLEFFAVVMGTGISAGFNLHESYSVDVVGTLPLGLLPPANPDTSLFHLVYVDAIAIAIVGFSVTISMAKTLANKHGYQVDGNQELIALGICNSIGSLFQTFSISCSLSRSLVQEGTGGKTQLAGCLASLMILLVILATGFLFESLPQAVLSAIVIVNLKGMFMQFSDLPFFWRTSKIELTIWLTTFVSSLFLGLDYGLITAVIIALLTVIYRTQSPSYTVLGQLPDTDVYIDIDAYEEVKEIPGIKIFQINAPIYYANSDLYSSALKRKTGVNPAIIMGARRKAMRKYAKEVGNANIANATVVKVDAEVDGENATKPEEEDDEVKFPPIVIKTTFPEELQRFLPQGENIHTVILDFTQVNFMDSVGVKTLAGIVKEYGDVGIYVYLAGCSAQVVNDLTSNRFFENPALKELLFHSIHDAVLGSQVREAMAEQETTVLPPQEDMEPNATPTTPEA
In words: whole-cell patch clamp of transfected HEK […] cells, nonlinear capacitance. The class given is cell-based. The following applies: 500 μM extracellular 9-AC; intracellular 135 mM CsCl; pH 7.2; 21.5 °C.

Turning to `O=C(O)c1c2ccccc2cc2ccccc12` [9‐anthracenecarboxylic acid], the “Q max reduction at 500 μM” value is on record as 59 ± 19%.
